These results are taken from patent publication US12600726B2, “Antagonists of the muscarinic acetylcholine receptor M4” (Vanderbilt University, priority 2017, dated 2026).

One may read the IC50 as the concentration that inhibits the measured activity by half.

One test addresses T1, Mouse M4 (Mus musculus, UniProt P32211).
T1 construct: expressed in transfected cells; host or cells: CHO-K1 (ATCC), stably expressing M4 and Gqi5
T1 sequence (P32211 1-479): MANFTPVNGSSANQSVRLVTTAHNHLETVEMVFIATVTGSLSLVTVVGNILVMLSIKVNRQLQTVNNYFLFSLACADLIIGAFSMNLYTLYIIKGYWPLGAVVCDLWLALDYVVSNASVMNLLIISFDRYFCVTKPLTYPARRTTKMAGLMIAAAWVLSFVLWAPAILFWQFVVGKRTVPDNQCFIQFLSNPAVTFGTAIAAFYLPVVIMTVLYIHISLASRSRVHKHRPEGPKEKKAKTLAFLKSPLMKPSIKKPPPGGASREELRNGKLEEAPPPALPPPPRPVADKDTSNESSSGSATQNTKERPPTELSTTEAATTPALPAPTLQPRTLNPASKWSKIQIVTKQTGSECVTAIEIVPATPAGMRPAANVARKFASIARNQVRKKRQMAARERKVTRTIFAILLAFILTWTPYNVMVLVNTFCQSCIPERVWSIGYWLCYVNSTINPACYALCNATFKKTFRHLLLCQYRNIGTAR
Put plainly: mAChR M4 cell-based functional calcium flux assay (mouse M4/Gqi5/CHO cells). Conditions: for Emin (mouse M4): % ACh maximum at 30 μM; for IC50: decrease of the response to an EC80 concentration of acetylcholine. Here is the method:
Human, rat, or mouse M4. cDNA, along with the chimeric G protein Gqi5, were transfected into Chinese hamster ovary (CHO-K1) cells purchased from the American Type Culture Collection using Lipofectamine2000. M4/Gqi5/CHO cells were grown in Ham's F-12 medium containing 10% heat-inactivated fetal bovine serum (FBS), 20 mM HEPES, 500 μg/mL G418 sulfate, and 200 μg/mL Hygromycin B.
For high throughput measurement of agonist-evoked increases in intracellular calcium, CHO-K1 cells stably expressing muscarinic receptors were plated in growth medium lacking G418 and hygromycin at 15,000 cells/20 μL/well in Greiner 384-well black-walled, tissue culture (TC)-treated, clear-bottom plates (VWR). Cells were incubated overnight at 37° C. and 5% CO2. The next day, cells were washed using an ELX 405 (BioTek) with assay buffer; the final volume was then aspirated to 20 μL. Next, 20 μL of a 2.3 μM stock of Fluo-4/acetoxymethyl ester (Invitrogen, Carlsbad, CA), prepared as a 2.3 mM stock in DMSO and mixed in a 1:1 ratio with 10% (w/v) Pluronic F-127 and diluted in assay buffer, was added to the wells and the cell plates were incubated for 50 min at 37° C. and 5% CO2. Dye was removed by washing with the ELX 405 and the final volume was aspirated to 20 μL. Compound master plates were formatted in a 10 point concentration-response curve (CRC) format (1:3 dilutions) in 100% DMSO with a starting concentration of 10 or 1 mM using a BRAVO liquid handler (Agilent). Test compound CRCs were then transferred to daughter plates (240 nL) using the Echo acoustic plate reformatter (Labcyte, Sunnyvale, CA) and then diluted into assay buffer (40 μL) to a 2× stock using a Thermo Fisher Combi (Thermo Fisher Scientific, Waltham, MA).
Calcium flux was measured using the Functional Drug Screening System (FDSS) 6000 or 7000 (Hamamatsu Corporation, Tokyo, Japan) as an increase in the fluorescent static ratio. Compounds were applied to cells (20 μL, 2×) using the automated system of the FDSS at 2 seconds into the protocol and the data were collected at 1 Hz. At 143 s, 10 μL of an EC20 concentration of the muscarinic receptor agonist acetylcholine was added (5×), followed by the addition of 12 μL of an EC80 concentration of acetylcholine at the 268 s time point (5×). Agonist activity was analyzed as a concentration-dependent increase in calcium mobilization upon compound addition. Positive allosteric modulator activity was analyzed as a concentration-dependent increase in the EC20 acetylcholine response. Antagonist activity was analyzed as a concentration-dependent decrease in the EC80 acetylcholine response; for the purposes of the tables herein, an IC50 (inhibitory concentration 50) was calculated as a concentration-dependent decrease of the response elicited by an EC80 concentration of acetylcholine. Concentration-response curves were generated using a four-parameter logistical equation in XLFit curve fitting software (IDBS, Bridgewater, NJ) for Excel (Microsoft, Redmond, WA) or Prism (GraphPad Software, Inc., San Diego, CA) or the Dotmatics software platform (Dotmatics, Bishop's Stortford, UK).
Compounds were synthesized as described above. Activity (IC50 and Emin) was determined in the mAChR M4 cell-based functional assay as described above and the data are shown in Table 2 and Table 3. The compound number corresponds to the compound numbers used in the examples and Tables 1 and 1.1.
On the technique in general: Calcium assays in cells follow changes in intracellular calcium, usually with a dye or a luminescent sensor.

A further test concerns the target T2, Rat M4 (Rattus norvegicus, UniProt P08485).
T2 construct: expressed in transfected cells; host or cells: CHO-K1 (ATCC), stably expressing M4 and Gqi5
T2 sequence (P08485 1-478): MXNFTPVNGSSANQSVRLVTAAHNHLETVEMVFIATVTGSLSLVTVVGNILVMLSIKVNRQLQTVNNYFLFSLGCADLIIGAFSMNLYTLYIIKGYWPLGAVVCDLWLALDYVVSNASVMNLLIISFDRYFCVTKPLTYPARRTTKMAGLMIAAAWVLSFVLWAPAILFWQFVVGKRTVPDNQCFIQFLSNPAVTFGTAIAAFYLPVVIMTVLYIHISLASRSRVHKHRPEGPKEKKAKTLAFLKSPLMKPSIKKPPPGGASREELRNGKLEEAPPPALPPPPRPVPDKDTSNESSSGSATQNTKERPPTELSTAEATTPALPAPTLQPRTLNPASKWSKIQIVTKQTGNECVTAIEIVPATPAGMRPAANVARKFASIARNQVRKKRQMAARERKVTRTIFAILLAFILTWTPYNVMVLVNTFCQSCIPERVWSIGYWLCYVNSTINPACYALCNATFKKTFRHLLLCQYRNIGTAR
Put plainly: mAChR M4 cell-based functional calcium flux assay (rat M4/Gqi5/CHO cells). As to conditions: for Emin (rat M4): % ACh maximum at 30 μM. The gist of the method:
(§1)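 CHO-K1 cells stably co-expressing M4 of the given species with chimeric Gqi5 were loaded with Fluo-4 AM and read for calcium flux. Compounds (10-point, 1:3 dilutions) were added first, followed by an acetylcholine EC20 at 143 s and an EC80 at 268 s. IC50 reflects the concentration-dependent fall in the EC80 response, fitted with a four-parameter logistic.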

In the next test the target is T3, Human M4 (Homo sapiens, UniProt P08173).
T3 construct: expressed in transfected cells; host or cells: CHO-K1 (ATCC), stably expressing M4 and Gqi5
T3 sequence (P08173 1-479): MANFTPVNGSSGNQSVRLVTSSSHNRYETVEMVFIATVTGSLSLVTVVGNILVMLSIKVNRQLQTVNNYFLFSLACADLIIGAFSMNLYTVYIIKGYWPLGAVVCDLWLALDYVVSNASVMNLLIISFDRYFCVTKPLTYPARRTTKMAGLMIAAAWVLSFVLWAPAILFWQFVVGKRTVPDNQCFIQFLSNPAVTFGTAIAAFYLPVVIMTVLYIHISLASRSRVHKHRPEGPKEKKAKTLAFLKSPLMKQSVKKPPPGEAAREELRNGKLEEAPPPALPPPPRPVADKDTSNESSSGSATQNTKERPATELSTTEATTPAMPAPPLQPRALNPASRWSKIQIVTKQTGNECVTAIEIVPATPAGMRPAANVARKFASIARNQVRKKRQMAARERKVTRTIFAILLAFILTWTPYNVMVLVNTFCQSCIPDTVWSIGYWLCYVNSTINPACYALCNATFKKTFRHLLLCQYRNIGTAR
Put plainly: mAChR M4 cell-based functional calcium flux assay (human M4/Gqi5/CHO cells). As to conditions: for Emin (human M4): % ACh maximum at 30 μM; for IC50: decrease of the response to an EC80 concentration of acetylcholine. In short, it runs like this: as §1

Setting [1] is: decrease of the response to an EC80 concentration of acetylcholine.

A value given as a limit tells only on which side of the number the result lay.

Take `CC(C)(C)CCN1CCC2(CC1)CC2CNc1ccc(N2CCCCC2)nn1` (centres unmarked) [Compound 78, N-[[6-(3,3-dimethylbutyl)-6-azaspiro[2.5]octan-2-yl]methyl]-6-(1-piperidyl)pyridazin-3-amine]: on Mouse M4, the “Emin (mouse M4)” value was 8% and the 50% inhibitory concentration (IC50) turned out to be 1240 nM.

Regarding `Fc1ccc(Cl)c(-c2ccc(OCC3CC34CCN(CC3CC5C=CC3C5)CC4)nn2)c1` (centres unmarked) [Compound 86, 6-(5-bicyclo[2.2.1]hept-2-enylmethyl)-2-[[6-(2-chloro-5-fluoro-phenyl)pyridazin-3-yl]oxymethyl]-6-azaspiro[2.5]octane], on Mouse M4, the “Emin (mouse M4)” value is on record as 3% and the concentration for half-maximal inhibition (IC50) is 2810 nM.

Take `CC(=O)Nc1ccc(-c2nnc(NCC3CC34CCN(CCC(C)(C)C)CC4)c(C)c2C)cc1` (centres unmarked) [Compound 116, N-[4-[6-[[6-(3,3-dimethylbutyl)-6-azaspiro[2.5]octan-2-yl]methylamino]-4,5-dimethyl-pyridazin-3-yl]phenyl]acetamide]: at Rat M4, the “Emin (rat M4)” value came out at 4%. In addition, the half-maximal inhibitory concentration (IC50) at Rat M4 (setting [1]) amounted to 0.015 µM. On Human M4, the “Emin (human M4)” value is on record as 5% and the IC50 was 11.9 nM.

On to `CC(=O)Nc1ccc(-c2nnc(NCC3CC34CCN(CC3CCCCC3)CC4)c(C)c2C)cc1` (centres unmarked) [Compound 117, N-[4-[6-[[6-(cyclohexylmethyl)-6-azaspiro[2.5]octan-2-yl]methylamino]-4,5-dimethyl-pyridazin-3-yl]phenyl]acetamide], for which the “Emin (rat M4)” value at Rat M4 amounted to 4%. For the same molecule, the IC50 on Rat M4 (setting [1]) turned out to be 0.0137 µM. On Human M4, the “Emin (human M4)” value came out at 5% and the IC50 is 19.7 nM.

Turning to `CC(=O)Nc1ccc(-c2ccc(NC[C@@H]3CC34CCN(CC3CCCCC3)CC4)nn2)cc1` [Compound 118, N-[4-[6-[[(2R)-6-(cyclohexylmethyl)-6-azaspiro[2.5]octan-2-yl]methylamino]pyridazin-3-yl]phenyl]acetamide], the “Emin (rat M4)” value at Rat M4 stood at 5%. Further, the results for the IC50 on Rat M4 (setting [1]) and at Human M4 were 0.0167 µM and 5.85 nM, respectively. Besides, at Human M4, the “Emin (human M4)” value was determined as 4%.

On to `CC(=O)Nc1ccc(-c2ccc(NC[C@@H]3CC34CCN(CC3CCCCCC3)CC4)nn2)cc1` [Compound 119, N-[4-[6-[[(2R)-6-(cycloheptylmethyl)-6-azaspiro[2.5]octan-2-yl]methylamino]pyridazin-3-yl]phenyl]acetamide], for which the “Emin (rat M4)” value at Rat M4 was determined as 5%. Further, the 50% inhibitory concentration (IC50) at Rat M4 (setting [1]) was found to be 0.0165 µM. On Human M4, the “Emin (human M4)” value turned out to be 3% and the IC50 came out at 8.18 nM.

Turning to `CC(=O)Nc1ccc(-c2ccc(NC[C@@H]3CC34CCN(CC35CC6CC(CC(C6)C3)C5)CC4)nn2)cc1` [Compound 120, N-[4-[6-[[(2R)-6-(1-adamantylmethyl)-6-azaspiro[2.5]octan-2-yl]methylamino]pyridazin-3-yl]phenyl]acetamide], the “Emin (rat M4)” value at Rat M4 came out at 3%. In addition, the half-maximal inhibitory concentration (IC50) was 0.0357 µM at Rat M4 (setting [1]) and 28.7 nM at Human M4. Besides, at Human M4, the “Emin (human M4)” value is listed as 4%.

In the case of `CC(=O)Nc1ccc(-c2ccc(NC[C@@H]3CC34CCN(CC3CCOCC3)CC4)nn2)cc1` [Compound 121, N-[4-[6-[[(2R)-6-(tetrahydropyran-4-ylmethyl)-6-azaspiro[2.5]octan-2-yl]methylamino]pyridazin-3-yl]phenyl]acetamide], the “Emin (rat M4)” value on Rat M4 was found to be 9%. On Rat M4 (setting [1]), the IC50 came to 0.0437 µM. Moreover, at Human M4, the “Emin (human M4)” value worked out at 3% and the IC50 came out at 68.2 nM.

Regarding `CC(=O)Nc1ccc(-c2ccc(NC[C@@H]3CC34CCN(Cc3ncccc3C)CC4)nn2)cc1` [Compound 122, N-[4-[6-[[(2R)-6-[(3-methyl-2-pyridyl)methyl]-6-azaspiro[2.5]octan-2-yl]methylamino]pyridazin-3-yl]phenyl]acetamide], the “Emin (rat M4)” value on Rat M4 is 12%. For the same molecule, the IC50 on Rat M4 (setting [1]) turned out to be 0.32 µM. Further, at Human M4, the “Emin (human M4)” value came to 12% and the IC50 stood at 1410 nM.

For `CC(=O)Nc1ccc(-c2ccc(NC[C@@H]3CC34CCN(Cc3ccc(F)cc3)CC4)nn2)cc1` [Compound 123, N-[4-[6-[[(2R)-6-[(4-fluorophenyl)methyl]-6-azaspiro[2.5]octan-2-yl]methylamino]pyridazin-3-yl]phenyl]acetamide], on Rat M4, the “Emin (rat M4)” value was 4%. Besides, the IC50 on Rat M4 (setting [1]) amounted to 0.207 µM. On Human M4, the “Emin (human M4)” value is on record as 5% and the IC50 was found to be 575 nM.

On to `CC(=O)Nc1ccc(-c2ccc(NC[C@H]3CC34CCN(CCC(C)(C)C)CC4)nn2)cc1` [Compound 124, N-[4-[6-[[(2S)-6-(3,3-dimethylbutyl)-6-azaspiro[2.5]octan-2-yl]methylamino]pyridazin-3-yl]phenyl]acetamide], for which the “Emin (rat M4)” value at Rat M4 was 4%. Further, the IC50 on Rat M4 (setting [1]) was found to be 0.0563 µM. Besides, on Human M4, the “Emin (human M4)” value is 4% and the IC50 came out at 34.3 nM.

Regarding `CC(=O)Nc1ccc(-c2ccc(NC[C@H]3CC34CCN(CC3CCOCC3)CC4)nn2)cc1` [Compound 126, N-[4-[6-[[(2S)-6-(tetrahydropyran-4-ylmethyl)-6-azaspiro[2.5]octan-2-yl]methylamino]pyridazin-3-yl]phenyl]acetamide], the “Emin (rat M4)” value at Rat M4 is reported as 28%. Also, the IC50 at Rat M4 (cells printed in μM, decrease of the EC80 acetylcholine response) was not below 10 µM. At Human M4, the “Emin (human M4)” value was 14% and the IC50 amounted to 1810 nM.
